Literature values in US4743707A, “Process for purifying allyl alcohol” (priority 1986, dated 1988).

Conditions: 20° C.; Ullmanns Encyklopadie

In the case of `O=P([O-])([O-])OP(=O)([O-])OP(=O)([O-])[O-].[K+].[K+].[K+].[K+].[K+]` [Potassium tripolyphosphate, potassium tripolyphosphate], the water solubility is given as “about 67%”.
